Consider 1 compound from patent publication US20220089602A1, “COMPOUNDS THAT INDUCE FERROPTIC CELL DEATH” (The Board of Trustees of the University of Illinois, priority 2019, published 2022).

In one test the target is T1, GPX4 (Homo sapiens, UniProt P36969).
T1 construct: endogenous in cells; host or cells: ES-2 cells
Put plainly: GPX4 LC-MS based activity assay (PCOOH). Format: cell-based. As to conditions: 10 μM, 1 hr, ES-2 cells. Here is the method:
1 million ES-2 cells/well, 6 well plate were allowed to attach overnight and then treated with DMSO, 10 μM of each compound: ferroptocide, raptinal, and RSL3 for 1 hr. GPX4 enzymatic activity assay was performed with a GPX4 specific substrate, phosphatidylcholine hydroperoxide (PC—OOH) as described previously with minor modifications (Cell 156, 317-331, (2014)). PCOOH was prepared as reported by Roveri and coworkers (Enzymol. Vol. 233 202-212 (Academic Press, 1994)) but using soybean lipoxidase type I-B (L7395, Milipore Sigma). Cells were washed with PBS and lysed by liquid nitrogen freeze-thaw method in the assay buffer (137 mM NaCl, 2.7 mM KCl, 8 mM Na2HPO4, 2 mM KH2PO4, 1 mM EDTA, 0.1 mM DFO; pH 7.4). Cell lysates were cleared by centrifugation at 14,000 rpm for 10 min at 4° C. Bradford assay was used to determine protein concentration; 200 μg of protein or assay buffer (PCOOH control sample) was mixed with 10 μL PC—OOH in methanol, 5 mM reduced glutathione, and assay buffer to a final reaction volume of 500 μL. The reaction mixture was incubated at 37° C. for 15 mins and extracted with 250 μL chloroform:methanol (2:1) solution. The lipid extract was evaporated under nitrogen and re-dissolved in 100% methanol before injecting into the LC-MS/MS instrument for PCOOH detection.

The target in another test is T2, TXNRD2 (Homo sapiens, UniProt Q9NNW7).
T2 construct: HCT 116 cells were pre-treated with ferroptocide or DMSO, followed by treatment with P29; endogenous in cells; host or cells: HCT 116 (and ES-2) cells
Put plainly: Biotin-streptavidin pulldown with P29, competition by ferroptocide, LC/LC-MS/MS. Format: binding. As to conditions: DMSO/ferroptocide spectral count ratio of P29-labeled enriched proteins. Here is the method:
(§1) ES-2 and HCT 116 (20×10^6 cells/flask) were plated in T175 flasks and treated with DMSO or 20 µM ferroptocide for 1 hr followed by treatment with 20 μM P29 for 1 hr. Cells were lysed via sonication (6500 g, 4 min) in DPBS and the soluble proteome was isolated after […] (45000 g, 45 min). Bradford assay was used to determine protein concentration. The soluble protein lysates in DPBS (pH 7.4) (500 μL, 2 mg/mL) were treated with biotin-azide (100 μM, 50× stock in DMSO), TCEP (1 mM, 50× fresh stock in water), TBTA ligand (100 μM, 17× stock in DMSO:t-butanol=1:4), and copper(II) sulfate (1 mM, 50× stock in water) followed by incubation at r.t. for 1 hr. Samples were centrifuged (6500 g, 4 min, 4° C.) and the supernatant was discarded. The pellets were resuspended in cold methanol by sonication (2×) and then were solubilized in DPBS containing 1.2% SDS via sonication and heating (90° C., 5 min). A final SDS concentration of 0.2% was achieved after addition of 5 mL of DPBS to the SDS-solubilized proteome samples. The solution was incubated overnight at 4° C. with 100 μL of streptavidin-agarose beads (ThermoFisher, washed 3× with DPBS to remove storage buffer). Samples were rotated at 22° C. for 2 hr before being washed by 5 mL 0.2% SDS/DPBS, 3×5 mL DPBS, and 3×5 mL water. The beads were pelleted by centrifugation (1400×g, 3 min) between washes.
(§2) The washed beads were suspended in 500 μL of 6 M urea/DPBS and 10 mM DTT (from 20× stock in water) and heated for 20 min on a 65° C. heat block. Upon addition of iodoacetamide (20 mM from 50× stock in water), samples were allowed to react at 37° C. for 30 min while shaking. Following reduction and alkylation, the beads were pelleted by centrifugation and resuspended in 200 μL of 2 M urea/DPBS, 1 mM CaCl2) (100× stock in water), and sequencing-grade trypsin (2 μg). The bead digestion occurred overnight at 37° C. while shaking. Next day, the beads were pelleted by centrifugation and washed with 2×50 μL water. The washes were combined with the supernatant from the trypsin digestion step, and after addition of formic acid (15 μL) to each sample, they were stored at −20° C. until mass spectrometry analysis.
(§3) LC/LC-MS/MS analysis was performed on an LTQ-Orbitrap Discovery mass spectrometer (ThermoFisher) coupled to an Agilent 1200 series HPLC. Peptide digests were pressure loaded onto a 250 m fused silica desalting column packed with 4 cm of Aqua C18 reverse phase resin (Phenomenex). The peptides were eluted onto a biphasic column (100 m fused silica with a 5, tip, packed with 10 cm C18 and 4 cm Partisphere strong cation exchange resin (SCX, Whatman) using a gradient 5-100% Buffer B in Buffer A (Buffer A: 95% water, 5% acetonitrile, 0.1% formic acid; Buffer B: 20% water, 80% acetonitrile, 0.1% formic acid). The peptides were then eluted from the SCX onto the C18 resin and into the mass spectrometer using 4 salt steps previously described (Nat. Protoc. 2, 1414-1425, (2007)). The flow rate through the column was set to ˜0.25 μL/min and the spray voltage was set to 2.75 kV. One full MS scan (FTMS) (400-1800 MW) was followed by 8 data dependent scans (ITMS) of the n^th most intense ions. The tandem MS data were searched using the SEQUEST algorithm using a concatenated target/decoy variant of the human UniProt database. A static modification of +57.02146 on cysteine was specified to account for alkylation by iodoacetamide. MS2 spectra matches were assembled into protein identifications and filtered using DTASelect2.0 to generate a list of protein hits with a peptide false-discovery rate of 5%. The mass spectrometry proteomics data have been deposited to the ProteomeXchange Consortium via the PRIDE [1] partner repository with the dataset identifier PXD012805.

A further test deals with T3, PDP1 (Homo sapiens, UniProt Q9P0J1).
T3 construct: endogenous in cells; host or cells: HCT 116 (and ES-2) cells
Described as above. It is filed as binding. As to conditions: DMSO/ferroptocide spectral count ratio of P29-labeled enriched proteins. Here is the method:
as §1, §2, §3

The target in another test is T4, TXN (Homo sapiens, UniProt P10599).
T4 construct: endogenous in cells; host or cells: HCT 116 (and ES-2) cells
The test is described as above. Format: binding. As to conditions: DMSO/ferroptocide spectral count ratio of P29-labeled enriched proteins. Here is the method: as §1, §2, §3

The target in another test is T5, TXNRD3 (Homo sapiens, UniProt Q86VQ6).
T5 construct: endogenous in cells; host or cells: HCT 116 (and ES-2) cells
Described as above. It is filed as binding. As to conditions: DMSO/ferroptocide spectral count ratio of P29-labeled enriched proteins. Here is the method:
as §1, §2, §3

The next test concerns 4T1 cells. In words: Cellular lipid ROS production (C11-BODIPY). It is filed as cell-based, murine. As to conditions: 10 μM. As for the experimental part:
ES-2, HCT 116, and 4T1 cells (1×10^5 cells/mL) were plated in 12-well plates. Cells were pre-treated for 2 hr with 100 μM deferoxamine followed by treatment with DMSO, 10 μM ferroptocide, 10 μM RSL3, or 100 μM TBHP for 1 hr, 1.5 hr and 2 hr respectively. Cells were washed with HBSS and incubated in the dark for 20 min with 5 μM C11-BODIPY probe. Cells were then washed 2× with HBSS and harvested at 1000×g, 3 min. After resuspension in 500 μl HBSS buffer, samples were analyzed with flow cytometry to record ten thousand events per sample in FL1 channel in BD LSR II Flow Cytometer (BD Bioscience). FCS express V6 De Novo software was used to generate histograms.

“Also recorded” adds a separate entry of the source.

T1 sequence (P36969 whole entry): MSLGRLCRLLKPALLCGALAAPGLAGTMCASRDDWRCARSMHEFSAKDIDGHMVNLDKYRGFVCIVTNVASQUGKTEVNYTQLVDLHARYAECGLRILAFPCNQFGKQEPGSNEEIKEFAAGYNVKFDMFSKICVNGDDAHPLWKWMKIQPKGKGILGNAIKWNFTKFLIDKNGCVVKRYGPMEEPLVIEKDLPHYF
T2 sequence (Q9NNW7 37-524): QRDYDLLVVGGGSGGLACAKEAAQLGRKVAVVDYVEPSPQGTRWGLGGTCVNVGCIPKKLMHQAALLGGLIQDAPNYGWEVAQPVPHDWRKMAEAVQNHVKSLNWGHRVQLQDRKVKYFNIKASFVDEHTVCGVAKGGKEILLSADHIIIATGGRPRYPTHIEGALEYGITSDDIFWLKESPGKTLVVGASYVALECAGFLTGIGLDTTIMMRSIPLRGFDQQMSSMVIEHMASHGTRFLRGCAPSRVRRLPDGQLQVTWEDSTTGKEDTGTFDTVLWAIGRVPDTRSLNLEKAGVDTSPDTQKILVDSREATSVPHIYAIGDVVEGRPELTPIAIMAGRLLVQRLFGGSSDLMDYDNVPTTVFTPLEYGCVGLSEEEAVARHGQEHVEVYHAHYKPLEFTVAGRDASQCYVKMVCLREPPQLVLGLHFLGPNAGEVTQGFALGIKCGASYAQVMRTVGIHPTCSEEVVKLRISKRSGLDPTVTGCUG
T3 sequence (Q9P0J1 72-537): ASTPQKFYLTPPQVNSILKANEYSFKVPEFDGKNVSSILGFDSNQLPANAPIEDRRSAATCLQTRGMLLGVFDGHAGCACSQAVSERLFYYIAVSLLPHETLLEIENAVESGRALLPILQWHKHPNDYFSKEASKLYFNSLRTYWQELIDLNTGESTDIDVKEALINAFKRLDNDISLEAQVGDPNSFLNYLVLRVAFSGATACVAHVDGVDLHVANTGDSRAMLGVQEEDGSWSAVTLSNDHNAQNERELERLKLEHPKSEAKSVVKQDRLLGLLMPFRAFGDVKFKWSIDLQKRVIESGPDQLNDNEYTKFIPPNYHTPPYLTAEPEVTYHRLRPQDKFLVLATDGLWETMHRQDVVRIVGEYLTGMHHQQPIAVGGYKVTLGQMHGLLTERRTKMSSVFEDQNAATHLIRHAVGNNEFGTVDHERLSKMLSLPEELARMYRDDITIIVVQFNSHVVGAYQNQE
T4 sequence (P10599 whole entry): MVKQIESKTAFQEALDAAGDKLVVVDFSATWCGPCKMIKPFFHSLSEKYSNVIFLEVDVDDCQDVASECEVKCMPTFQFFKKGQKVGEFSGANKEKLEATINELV
T5 sequence (Q86VQ6 whole entry): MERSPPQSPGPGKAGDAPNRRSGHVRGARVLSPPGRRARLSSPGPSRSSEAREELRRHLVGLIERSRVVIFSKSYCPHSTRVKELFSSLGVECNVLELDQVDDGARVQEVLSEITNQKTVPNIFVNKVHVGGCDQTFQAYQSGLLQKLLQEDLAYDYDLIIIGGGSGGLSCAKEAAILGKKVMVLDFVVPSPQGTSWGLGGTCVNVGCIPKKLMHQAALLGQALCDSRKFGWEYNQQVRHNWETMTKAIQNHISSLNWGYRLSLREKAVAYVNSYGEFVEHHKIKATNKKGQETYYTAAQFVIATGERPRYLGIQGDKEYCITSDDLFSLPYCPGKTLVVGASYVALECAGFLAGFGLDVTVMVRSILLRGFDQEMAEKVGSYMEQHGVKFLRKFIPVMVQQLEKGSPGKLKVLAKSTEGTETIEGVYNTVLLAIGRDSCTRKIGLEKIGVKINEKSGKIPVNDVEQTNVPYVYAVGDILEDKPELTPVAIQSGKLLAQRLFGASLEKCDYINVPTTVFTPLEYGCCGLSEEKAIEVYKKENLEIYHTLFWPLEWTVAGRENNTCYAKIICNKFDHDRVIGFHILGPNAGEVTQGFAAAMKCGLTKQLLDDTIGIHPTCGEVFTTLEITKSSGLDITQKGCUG

Take `C[C@@H]1CC[C@@]23C[C@H](O)C(=O)[C@@]2(O)[C@]1(C)[C@H](OC(=O)CCl)C[C@@H](C1=CCn2c(=O)n(-c4ccccc4)c(=O)n2C1)[C@@H]3C` [Compound P18, ferroptocide]: on GPX4, the GPX4 inhibition entry is “did not result in GPX4 inhibition; also recorded: does not cause direct GPX4 inhibition”. Further, the “Fold Change” value at TXNRD2 amounted to 2; on PDP1, 3.7; at TXN, 11.1; at TXNRD3, 7.4. Further, the “lipid ROS” value in the test on 4T1 cells was “induces lipid ROS”.
